{"source": "PubChem BioAssay AID1918930", "about": "(Molecular Pharmacology Branch, DTP, NCI, 2023);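 note: spheroids exposed to agents for one week before readout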", "tested_on": "233499-124-R-J3-PDC complex spheroid viability, % test/control", "assay": "Anticancer human tumor 233499-124-R-J3-PDC patient-derived colon adenocarcinoma cell line growth inhibition", "details": "for IC50: curve of first compound; for viability, T/C: stronger effect = lower value", "outline": "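Multicellular complex spheroids of tumor cells with human endothelial cells (HUVEC) and mesenchymal stem cells; the LSD1 inhibitor iadademstat was combined with standard-of-care or investigational agents. Top concentration at or near clinical Cmax, half-log dilutions; final DMSO ≤0.25%.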"}
{"smiles": "Nc1ccccc1NC(=O)c1ccc(CNC(=O)OCc2cccnc2)cc1", "note": "+ NC1CCC(NC2CC2c2ccccc2)CC1", "values": [{"measurement": "IC50", "setting": "second compound 0.1 µM", "value": 476, "unit": "nM"}, {"measurement": "IC50", "setting": "second compound 0.316 µM", "value": 579, "unit": "nM"}, {"measurement": "IC50", "setting": "second compound 1 µM", "value": 523, "unit": "nM"}, {"measurement": "IC50", "setting": "second compound 3.16 µM", "value": 525, "unit": "nM"}, {"measurement": "IC50", "setting": "second compound 10 µM", "value": 463, "unit": "nM"}, {"measurement": "viability, T/C", "setting": "second compound 0.1 µM, first compound 0.00949 µM", "value": 112, "unit": "%"}, {"measurement": "viability, T/C", "setting": "second compound 0.1 µM, first compound 0.03 µM", "value": 93.4, "unit": "%"}, {"measurement": "viability, T/C", "setting": "second compound 0.1 µM, first compound 0.0949 µM", "value": 106, "unit": "%"}, {"measurement": "viability, T/C", "setting": "second compound 0.1 µM, first compound 0.3 µM", "value": 65.8, "unit": "%"}, {"measurement": "viability, T/C", "setting": "second compound 0.1 µM, first compound 0.949 µM", "value": 24, "unit": "%"}, {"measurement": "viability, T/C", "setting": "second compound 0.1 µM, first compound 3 µM", "value": 2.31, "unit": "%"}, {"measurement": "viability, T/C", "setting": "second compound 0.316 µM, first compound 0.00949 µM", "value": 92.2, "unit": "%"}, {"measurement": "viability, T/C", "setting": "second compound 0.316 µM, first compound 0.03 µM", "value": 91.8, "unit": "%"}, {"measurement": "viability, T/C", "setting": "second compound 0.316 µM, first compound 0.0949 µM", "value": 101, "unit": "%"}, {"measurement": "viability, T/C", "setting": "second compound 0.316 µM, first compound 0.3 µM", "value": 91.2, "unit": "%"}, {"measurement": "viability, T/C", "setting": "second compound 0.316 µM, first compound 0.949 µM", "value": 19.1, "unit": "%"}, {"measurement": "viability, T/C", "setting": "second compound 0.316 µM, first compound 3 µM", "value": 5.83, "unit": "%"}, {"measurement": "viability, T/C", "setting": "second compound 1 µM, first compound 0.00949 µM", "value": 81.9, "unit": "%"}, {"measurement": "viability, T/C", "setting": "second compound 1 µM, first compound 0.03 µM", "value": 99.9, "unit": "%"}, {"measurement": "viability, T/C", "setting": "second compound 1 µM, first compound 0.0949 µM", "value": 92, "unit": "%"}, {"measurement": "viability, T/C", "setting": "second compound 1 µM, first compound 0.3 µM", "value": 88.4, "unit": "%"}, {"measurement": "viability, T/C", "setting": "second compound 1 µM, first compound 0.949 µM", "value": 8.94, "unit": "%"}, {"measurement": "viability, T/C", "setting": "second compound 1 µM, first compound 3 µM", "value": 4.76, "unit": "%"}, {"measurement": "viability, T/C", "setting": "second compound 3.16 µM, first compound 0.00949 µM", "value": 78.8, "unit": "%"}, {"measurement": "viability, T/C", "setting": "second compound 3.16 µM, first compound 0.03 µM", "value": 89.5, "unit": "%"}, {"measurement": "viability, T/C", "setting": "second compound 3.16 µM, first compound 0.0949 µM", "value": 76.7, "unit": "%"}, {"measurement": "viability, T/C", "setting": "second compound 3.16 µM, first compound 0.3 µM", "value": 82.1, "unit": "%"}, {"measurement": "viability, T/C", "setting": "second compound 3.16 µM, first compound 0.949 µM", "value": 16.5, "unit": "%"}, {"measurement": "viability, T/C", "setting": "second compound 3.16 µM, first compound 3 µM", "value": 4.56, "unit": "%"}, {"measurement": "viability, T/C", "setting": "second compound 10 µM, first compound 0.00949 µM", "value": 74.8, "unit": "%"}, {"measurement": "viability, T/C", "setting": "second compound 10 µM, first compound 0.03 µM", "value": 92.3, "unit": "%"}, {"measurement": "viability, T/C", "setting": "second compound 10 µM, first compound 0.0949 µM", "value": 75.2, "unit": "%"}, {"measurement": "viability, T/C", "setting": "second compound 10 µM, first compound 0.3 µM", "value": 73.4, "unit": "%"}, {"measurement": "viability, T/C", "setting": "second compound 10 µM, first compound 0.949 µM", "value": 11.5, "unit": "%"}, {"measurement": "viability, T/C", "setting": "second compound 10 µM, first compound 3 µM", "value": 3.56, "unit": "%"}]}
{"smiles": "O=C(c1cc(Cc2n[nH]c(=O)c3ccccc23)ccc1F)N1CCN(C(=O)C2CC2)CC1", "note": "+ NC1CCC(NC2CC2c2ccccc2)CC1", "values": [{"measurement": "IC50", "setting": "second compound 0.1 µM", "value": "> 10000", "unit": "nM"}, {"measurement": "IC50", "setting": "second compound 0.316 µM", "value": "> 10000", "unit": "nM"}, {"measurement": "IC50", "setting": "second compound 1 µM", "value": "> 10000", "unit": "nM"}, {"measurement": "IC50", "setting": "second compound 3.16 µM", "value": "> 10000", "unit": "nM"}, {"measurement": "IC50", "setting": "second compound 10 µM", "value": "> 10000", "unit": "nM"}, {"measurement": "viability, T/C", "setting": "second compound 0.1 µM, first compound 0.0316 µM", "value": 101, "unit": "%"}, {"measurement": "viability, T/C", "setting": "second compound 0.1 µM, first compound 0.1 µM", "value": 107, "unit": "%"}, {"measurement": "viability, T/C", "setting": "second compound 0.1 µM, first compound 0.316 µM", "value": 102, "unit": "%"}, {"measurement": "viability, T/C", "setting": "second compound 0.1 µM, first compound 1 µM", "value": 102, "unit": "%"}, {"measurement": "viability, T/C", "setting": "second compound 0.1 µM, first compound 3.16 µM", "value": 91.7, "unit": "%"}, {"measurement": "viability, T/C", "setting": "second compound 0.1 µM, first compound 10 µM", "value": 81.6, "unit": "%"}, {"measurement": "viability, T/C", "setting": "second compound 0.316 µM, first compound 0.0316 µM", "value": 109, "unit": "%"}, {"measurement": "viability, T/C", "setting": "second compound 0.316 µM, first compound 0.1 µM", "value": 102, "unit": "%"}, {"measurement": "viability, T/C", "setting": "second compound 0.316 µM, first compound 0.316 µM", "value": 90.5, "unit": "%"}, {"measurement": "viability, T/C", "setting": "second compound 0.316 µM, first compound 1 µM", "value": 92.3, "unit": "%"}, {"measurement": "viability, T/C", "setting": "second compound 0.316 µM, first compound 3.16 µM", "value": 85.6, "unit": "%"}, {"measurement": "viability, T/C", "setting": "second compound 0.316 µM, first compound 10 µM", "value": 97.3, "unit": "%"}, {"measurement": "viability, T/C", "setting": "second compound 1 µM, first compound 0.0316 µM", "value": 94.5, "unit": "%"}, {"measurement": "viability, T/C", "setting": "second compound 1 µM, first compound 0.1 µM", "value": 83.3, "unit": "%"}, {"measurement": "viability, T/C", "setting": "second compound 1 µM, first compound 0.316 µM", "value": 71.1, "unit": "%"}, {"measurement": "viability, T/C", "setting": "second compound 1 µM, first compound 1 µM", "value": 81.3, "unit": "%"}, {"measurement": "viability, T/C", "setting": "second compound 1 µM, first compound 3.16 µM", "value": 86.1, "unit": "%"}, {"measurement": "viability, T/C", "setting": "second compound 1 µM, first compound 10 µM", "value": 95, "unit": "%"}, {"measurement": "viability, T/C", "setting": "second compound 3.16 µM, first compound 0.0316 µM", "value": 82.7, "unit": "%"}, {"measurement": "viability, T/C", "setting": "second compound 3.16 µM, first compound 0.1 µM", "value": 90.5, "unit": "%"}, {"measurement": "viability, T/C", "setting": "second compound 3.16 µM, first compound 0.316 µM", "value": 84.8, "unit": "%"}, {"measurement": "viability, T/C", "setting": "second compound 3.16 µM, first compound 1 µM", "value": 75.3, "unit": "%"}, {"measurement": "viability, T/C", "setting": "second compound 3.16 µM, first compound 3.16 µM", "value": 87.1, "unit": "%"}, {"measurement": "viability, T/C", "setting": "second compound 3.16 µM, first compound 10 µM", "value": 79.5, "unit": "%"}, {"measurement": "viability, T/C", "setting": "second compound 10 µM, first compound 0.0316 µM", "value": 79.4, "unit": "%"}, {"measurement": "viability, T/C", "setting": "second compound 10 µM, first compound 0.1 µM", "value": 68.2, "unit": "%"}, {"measurement": "viability, T/C", "setting": "second compound 10 µM, first compound 0.316 µM", "value": 67.8, "unit": "%"}, {"measurement": "viability, T/C", "setting": "second compound 10 µM, first compound 1 µM", "value": 69.2, "unit": "%"}, {"measurement": "viability, T/C", "setting": "second compound 10 µM, first compound 3.16 µM", "value": 79.6, "unit": "%"}, {"measurement": "viability, T/C", "setting": "second compound 10 µM, first compound 10 µM", "value": 69, "unit": "%"}]}
